“Also recorded” adds a separate entry of the source.
Legend:
[1] = test system: Smoothened bearing the A1 point mutation; assay: Shh pathway inhibition in Smo/Smo (SmoA1) mouse medulloblastoma; type: in vivo
Source text: Two mouse medulloblastoma models were considered for these studies. In the Smo/Smo model, the constitutively active Smoothened (SmoA1) transgene is driven by a fragment of the mouse NeuroD2 promoter (Hallahan et al., (2004) Cancer Research 64: 7794-7800). Over 90% of Smo/Smo mice develop subclinical, localized medulloblastomas by one month of age and they typically become symptomatic and moribund 3-5 months later (Hatton et al., (2008) Cancer Research 68: 1768-1776). In this model, Smoothened is activated by a W539L point mutation (SmoA1) in the seventh transmembrane domain (Xie et al. (1998) Nature 391: 90-92; Taipale et al., (2000) Nature 406:1005-1009). While this model is ideal for many pre-clinical medulloblastoma therapeutic trials, it was previously reported that the introduced SmoA1 point mutation reduced the affinity of cyclopamine for Smoothened in tissue culture cells (Taipale et al., (2000) Nature 406:1005-1009). Tests were performed to determine whether doses of IPI-926 that were effective in other mouse model studies were sufficient to block the Shh pathway in Smo/Smo mouse tumors. […] Therefore, a different medulloblastoma model was used.

[2] = test system: LuCaP35V (Castration Resistant) primary prostate cancer; assay: LuCaP35V castration resistant primary prostate cancer model; type: in vivo
Source text: The effects of IPI-926 were examined following docetaxel chemotherapy in a model of castration resistant prostate cancer. Prostate cancer is known to be a highly desmoplastic cancer, and one that preferentially metastasizes to bone. Sonic hedgehog ligand is expressed in clinical specimens and primary xenograft models. […] FIG. 7 summarizes the effects of IPI-926 in LuCaP35V (Castration Resistant) primary prostate cancer model. Days of docetaxel and IPI-926 administration are indicated by the arrowheads at the indicated days post-implant. The following samples were tested: Vehicle control (administered orally once a day), 40 mg/kg of IPI-926 (administered orally once a day), docetaxel (administered intravenously Q14D for 28 days), or docetaxel (administered intravenously Q14D for 28 days) followed by 40 mg/kg of IPI-926, as shown in FIG. 7. […] Thus, IPI-926 can be useful as maintenance therapy in prostate cancer.

[3] = test system: LX22 primary small cell lung tumor; assay: LX22 primary small cell lung cancer xenograft, post etoposide/carboplatin; type: in vivo, mice
Procedure: FIG. 1 is a series of line graphs showing the effect in tumor size (mm^3) as a function of days of treatment of mice having an LX22 primary small cell lung tumor with IPI-926 alone (“IPI-926”), etoposide/carboplatin followed by vehicle control (“E/P→Vehicle”), E/P followed by IPI-926 (“E/P→IPI-926”) and vehicle control. Mice were treated for 5 weeks total with IPI-926 follow-up treatment at 40 mg/kg PO QD.
Briefly, LX22 primary small cell lung model was treated with 1.5 cycles of etoposide/carboplatin (E/P). Administration of IPI-926 was initiated 24 hours after the last dose of chemotherapy. In the normal course of these studies, IPI-926 was administered […].
The effect of delaying the onset of IPI-926 administration following chemotherapy was further characterized. […] FIG. 2 is a linear graph depicting the effect in tumor size as a function of time of chemotherapy treatment and following with IPI-926 treatment on day 5 (D5) and day 15 (D15) following chemotherapy treatment. Thus, a narrow window of intervention is necessary to maximize the beneficial effects of IPI-926 in tumor inhibition following chemotherapy.

Tolerability in mice = type: in vivo; conditions: incl. daily 20 mg/kg for greater than 60 days and once-weekly 70 mg/kg
Source text: Studies that are currently underway in pediatric patients and those being planned must consider the permanent changes on cartilage and bone formation observed in young mice as a result of treatment with the HhAntag Smoothened inhibitor (Kimura et al., (2008) Cancer Cell 13: 249-260). The extent to which this on-target toxicity is species specific remains unknown at this time.

[4] = test system: primary serous ovarian cancer xenograft; assay: Primary serous ovarian cancer xenograft, post carboplatin/taxol; type: in vivo, NOD/SCID mice
Procedure: The effects of IPI-926 were examined following carboplatin/taxol combination chemotherapy in a series of primary ovarian cancer xenograft models.
1) IPI-926 was given daily, oral at 40 mg/kg
2) The taxol/carboplatinum was given: • a. Intraperitoneal Carboplatinum 50 mg/kg every 7 days • b. Intraperitoneal Paclitaxel 15 mg/kg every 7 days
Days of carboplatin/taxol and IPI-926 administration are indicated by the arrows. […] The inhibitory effects of IPI-926 persisted after discontinuing administration of IPI-926. Thus, IPI-926 can be useful as maintenance therapy in ovarian cancer.
Excess ovarian tumor tissue from patients was collected. Histologically confirmed papillary serous ovarian tumors was disaggregated into purified tumor cells devoid of hematologic components. These cells were suspended in a 1:1 PBS:Matrigel®. A suspension of a specified number of cells was injected subcutaneously (SC) into 6 week old NOD/SCID mice (NOD/LtSz-Prkdcscid/J; 6-8 weeks; Jackson Labs). The mice were housed and maintained in accordance with the institutional guidelines and tumor formation in the injected animals is monitored regularly. Subcutaneous tumors were measured weekly with calipers, and the volume (in mm^3) was determined using the formula: [length (mm)×width (mm)×width (mm)]/2. Animals were euthanized when they become moribund or had evident excessive tumor burden. For continued propagation in mice, the generated tumors were excised and processed as described for the primary tumor samples, depleted of mouse H2 Kd+ cells (MACS beads) and re-injected subcutaneously into new recipient NOD/SCID mice. All tumor cells utilized for these experiments underwent at least 3 passages to ensure the presence of a tumor initiating population. Histology of each generation was evaluated to confirm the maintenance of papillary serous histology.
Following serial transplantation, a minimum of 40 tumor-bearing mice (300-600 mm^3) were treated with vehicle or paclitaxel (15 mg/kg) and carboplatinum (50 mg/kg) (T/C) IP q 7 days. […] Tumor volume and mouse weights were regularly assessed. […]

CC1=C2C[C@H]3[C@@H](CC[C@@H]4C[C@H](NS(C)(=O)=O)CC[C@@]43C)[C@@H]2CC[C@@]2(C1)O[C@@H]1C[C@H](C)CN[C@H]1[C@H]2C [IPI-926]
proliferation or apoptosis ([1]; Smo/Smo mouse model): no detectable effect | expression of Gli1 ([1]; Smo/Smo mouse tumors): unaffected | tumor volume, IPI-926 alone ([2]; 40 mg/kg orally once a day): marked increase in tumor volume | tumor volume after cessation of docetaxel chemotherapy ([2]; docetaxel IV Q14D for 28 days followed by 40 mg/kg IPI-926): prolonged duration of the tumor inhibition | tumor re-growth following cyto-reductive chemotherapy ([3]; E/P then IPI-926 40 mg/kg PO QD, started 24 hours after last chemotherapy dose): inhibitory effect on the re-growth of tumors | tumor growth inhibition with delayed onset of administration ([3]; IPI-926 administration delayed by 5 or 14 days after chemotherapy): loss of the IPI-926 effect in tumor growth inhibition | expression of stromal marker murine Gli-1 ([3]; tumors after chemotherapy, vs vehicle-treated): inhibited | tolerability (Tolerability in mice): well tolerated | percent tumor volume, IPI-926 alone ([4]; after 20 days of treatment, vs control treated mice): smaller percent tumor volume (p<0.007) | tumor volume after cessation of carboplatin/taxol chemotherapy ([4]; carboplatin/taxol followed by IPI-926 40 mg/kg oral, vs followed by vehicle, 40 mg/kg): prolonged duration of the tumor inhibition; also recorded: smaller percent tumor volume (p<0.02) | mGLI-1 mRNA in tumor ([4]; primary xenograft model of ovarian cancer): modulate mGLI-1
